Numbered stars: 1 amine (or outer) side, 2 acyl side, 3 side chain; on linkers, the order of the positions; unused ones are H or OH. Bridge positions count the residues as written; N and C are the ends. Peptide text beside a SMILES is read from it. * marks the point of attachment. X1 = O=C(O)CN1CCN(CC(=O)O)CCN(CC(=O)N2CCN(Cc3cc(C[*:1])cc(C[*:2])c3)CC2)CCN(CC(=O)O)CC1; Hexanoyl = CCCCCC(=O)*
Tests used:
NMDA = settings: 10 μM
A2A (h) = A2A (h) (Homo sapiens, UniProt P29274); test: biochemical; settings: read-out: % Inhibition of Specific Binding
A2A (h), sequence (P29274 whole entry): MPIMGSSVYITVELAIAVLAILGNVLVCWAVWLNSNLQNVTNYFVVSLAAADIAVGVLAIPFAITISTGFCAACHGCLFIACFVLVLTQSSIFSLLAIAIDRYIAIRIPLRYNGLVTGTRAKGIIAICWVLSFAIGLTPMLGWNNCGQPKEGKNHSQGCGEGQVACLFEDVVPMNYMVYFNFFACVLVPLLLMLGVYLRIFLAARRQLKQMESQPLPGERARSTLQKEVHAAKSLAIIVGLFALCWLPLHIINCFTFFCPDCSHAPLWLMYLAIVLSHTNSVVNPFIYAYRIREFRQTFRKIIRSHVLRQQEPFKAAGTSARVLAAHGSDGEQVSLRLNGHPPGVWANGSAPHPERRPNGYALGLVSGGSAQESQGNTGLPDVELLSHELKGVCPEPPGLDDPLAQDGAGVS

alpha 2A (h) = alpha 2A (h) (Homo sapiens, UniProt P08913); test: biochemical; settings: read-out: % Inhibition of Specific Binding
beta 2 (h) = beta 2 (h) (Homo sapiens, UniProt P07550); test: biochemical; settings: read-out: % Inhibition of Specific Binding
beta 2 (h), sequence (P07550 whole entry): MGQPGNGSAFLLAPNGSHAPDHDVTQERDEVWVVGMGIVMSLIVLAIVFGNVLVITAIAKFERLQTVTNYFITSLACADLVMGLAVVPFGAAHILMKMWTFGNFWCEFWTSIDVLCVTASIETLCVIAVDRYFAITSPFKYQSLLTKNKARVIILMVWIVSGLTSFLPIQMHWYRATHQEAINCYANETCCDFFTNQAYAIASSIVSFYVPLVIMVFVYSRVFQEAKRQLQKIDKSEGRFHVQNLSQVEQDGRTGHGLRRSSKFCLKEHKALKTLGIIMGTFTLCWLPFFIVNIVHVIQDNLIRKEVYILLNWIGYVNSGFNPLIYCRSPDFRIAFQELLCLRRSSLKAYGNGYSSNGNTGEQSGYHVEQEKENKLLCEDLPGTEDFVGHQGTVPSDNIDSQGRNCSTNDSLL

CB2 (h) = CB2 (h) (Homo sapiens, UniProt P34972); test: biochemical; settings: read-out: % Inhibition of Specific Binding
CB2 (h), sequence (P34972 whole entry): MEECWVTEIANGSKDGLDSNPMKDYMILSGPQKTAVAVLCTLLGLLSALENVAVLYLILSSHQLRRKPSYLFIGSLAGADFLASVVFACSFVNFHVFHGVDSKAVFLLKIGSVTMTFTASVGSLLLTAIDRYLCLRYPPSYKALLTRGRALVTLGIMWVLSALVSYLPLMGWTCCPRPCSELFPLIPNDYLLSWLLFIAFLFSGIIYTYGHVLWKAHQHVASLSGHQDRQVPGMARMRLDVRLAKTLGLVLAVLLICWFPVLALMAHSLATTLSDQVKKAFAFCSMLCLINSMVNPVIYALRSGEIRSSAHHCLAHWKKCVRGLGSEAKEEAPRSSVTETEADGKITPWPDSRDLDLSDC

H1 (h) = H1 (h) (Homo sapiens, UniProt P35367); test: biochemical; settings: read-out: % Inhibition of Specific Binding
H1 (h), sequence (P35367 whole entry): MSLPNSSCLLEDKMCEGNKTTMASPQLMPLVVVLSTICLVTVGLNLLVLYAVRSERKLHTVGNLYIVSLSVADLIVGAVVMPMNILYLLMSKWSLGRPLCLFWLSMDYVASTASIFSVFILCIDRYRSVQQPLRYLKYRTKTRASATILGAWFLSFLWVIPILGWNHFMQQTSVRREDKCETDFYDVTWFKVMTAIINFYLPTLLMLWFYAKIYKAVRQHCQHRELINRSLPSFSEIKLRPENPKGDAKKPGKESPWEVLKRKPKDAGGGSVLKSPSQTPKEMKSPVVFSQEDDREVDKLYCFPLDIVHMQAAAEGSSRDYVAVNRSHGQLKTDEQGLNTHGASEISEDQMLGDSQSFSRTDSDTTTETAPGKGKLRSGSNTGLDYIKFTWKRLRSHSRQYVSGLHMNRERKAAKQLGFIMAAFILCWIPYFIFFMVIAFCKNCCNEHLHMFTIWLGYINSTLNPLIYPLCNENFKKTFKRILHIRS

M1 (h) = M1 (h) (Homo sapiens, UniProt P11229); test: biochemical; settings: read-out: % Inhibition of Specific Binding
M1 (h), sequence (P11229 whole entry): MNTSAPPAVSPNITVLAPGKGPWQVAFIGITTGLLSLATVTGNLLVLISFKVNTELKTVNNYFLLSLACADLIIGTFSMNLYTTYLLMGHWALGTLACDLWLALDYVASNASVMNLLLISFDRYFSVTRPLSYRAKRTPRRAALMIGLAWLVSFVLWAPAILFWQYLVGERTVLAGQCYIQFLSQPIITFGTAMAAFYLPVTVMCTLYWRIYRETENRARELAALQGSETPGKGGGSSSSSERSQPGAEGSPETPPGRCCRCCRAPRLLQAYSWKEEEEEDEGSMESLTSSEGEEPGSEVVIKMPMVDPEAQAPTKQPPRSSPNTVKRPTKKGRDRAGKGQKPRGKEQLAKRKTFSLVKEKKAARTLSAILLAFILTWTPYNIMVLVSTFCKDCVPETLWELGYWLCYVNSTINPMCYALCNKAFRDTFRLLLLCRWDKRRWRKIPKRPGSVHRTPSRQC

[1] = target: norepinephrine transporter (h) (Homo sapiens, UniProt P23975); test: biochemical; settings: read-out: % Inhibition of Specific Binding
COX2(h) = COX2(h) (Homo sapiens, UniProt P35354); test: biochemical; settings: read-out: % Inhibition of Specific Binding
PDE4D2 (h) = PDE4D2 (h) (Homo sapiens, UniProt Q08499); test: biochemical; settings: read-out: % Inhibition of Specific Binding
PDE4D2 (h), sequence (Q08499 303-809): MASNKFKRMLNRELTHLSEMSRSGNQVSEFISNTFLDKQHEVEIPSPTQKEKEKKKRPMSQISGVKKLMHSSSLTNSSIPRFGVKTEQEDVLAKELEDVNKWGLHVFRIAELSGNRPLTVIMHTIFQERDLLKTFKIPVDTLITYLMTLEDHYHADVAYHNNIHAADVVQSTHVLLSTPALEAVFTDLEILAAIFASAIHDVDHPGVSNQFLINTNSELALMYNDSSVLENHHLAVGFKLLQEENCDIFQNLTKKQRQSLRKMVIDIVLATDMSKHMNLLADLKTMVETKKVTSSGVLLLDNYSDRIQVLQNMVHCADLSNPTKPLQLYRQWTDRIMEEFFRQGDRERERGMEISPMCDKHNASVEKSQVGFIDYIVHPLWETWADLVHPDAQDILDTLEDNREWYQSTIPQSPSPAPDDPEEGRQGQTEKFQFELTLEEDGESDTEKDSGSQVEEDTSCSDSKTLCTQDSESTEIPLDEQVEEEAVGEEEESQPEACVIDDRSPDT

Acetylcholinesterase (h) = Acetylcholinesterase (h) (Homo sapiens, UniProt P22303); test: biochemical; settings: read-out: % Inhibition of Specific Binding
Acetylcholinesterase (h), sequence (P22303 32-614): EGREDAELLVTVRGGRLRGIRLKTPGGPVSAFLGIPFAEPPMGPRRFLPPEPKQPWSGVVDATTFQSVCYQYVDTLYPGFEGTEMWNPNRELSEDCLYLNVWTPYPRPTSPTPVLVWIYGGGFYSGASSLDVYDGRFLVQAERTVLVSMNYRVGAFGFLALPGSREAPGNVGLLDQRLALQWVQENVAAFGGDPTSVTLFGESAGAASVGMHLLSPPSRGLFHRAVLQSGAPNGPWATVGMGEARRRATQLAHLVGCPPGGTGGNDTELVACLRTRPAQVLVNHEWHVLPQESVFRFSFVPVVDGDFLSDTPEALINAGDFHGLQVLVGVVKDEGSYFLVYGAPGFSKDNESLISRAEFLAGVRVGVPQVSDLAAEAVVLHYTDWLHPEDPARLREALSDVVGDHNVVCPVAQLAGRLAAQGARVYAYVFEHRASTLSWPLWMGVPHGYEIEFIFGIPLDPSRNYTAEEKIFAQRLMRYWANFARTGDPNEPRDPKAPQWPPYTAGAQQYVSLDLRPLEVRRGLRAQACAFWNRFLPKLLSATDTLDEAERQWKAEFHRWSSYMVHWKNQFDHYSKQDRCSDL

Activated Protein C = Activated Protein C (Homo sapiens, UniProt P04070); test: biochemical; settings: read-out: Percentage inhibition (%)
Activated Protein C, sequence (P04070 212-461 limits assumed): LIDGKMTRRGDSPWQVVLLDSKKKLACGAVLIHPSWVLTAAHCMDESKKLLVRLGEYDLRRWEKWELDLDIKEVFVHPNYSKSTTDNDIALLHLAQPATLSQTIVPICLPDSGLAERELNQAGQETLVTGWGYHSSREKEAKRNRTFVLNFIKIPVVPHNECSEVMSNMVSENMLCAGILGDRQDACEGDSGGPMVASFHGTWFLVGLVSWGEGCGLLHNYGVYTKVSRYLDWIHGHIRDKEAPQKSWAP
Activated Protein C, sequence (P04070 43-197 partner limits assumed): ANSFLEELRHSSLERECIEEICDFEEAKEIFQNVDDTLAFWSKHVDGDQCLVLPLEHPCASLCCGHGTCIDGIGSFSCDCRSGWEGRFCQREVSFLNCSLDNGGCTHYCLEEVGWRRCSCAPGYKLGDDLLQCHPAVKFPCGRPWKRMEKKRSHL

Caspase-3 = target: T1, Caspase-3 (Homo sapiens, UniProt P42574); test: biochemical; settings: read-out: Percentage inhibition (%)
T1 sequence (P42574 29-175 limits assumed): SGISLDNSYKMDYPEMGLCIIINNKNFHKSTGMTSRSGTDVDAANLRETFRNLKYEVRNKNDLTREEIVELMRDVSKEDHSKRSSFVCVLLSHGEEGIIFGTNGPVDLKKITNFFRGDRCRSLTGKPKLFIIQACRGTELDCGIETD
T1 sequence (P42574 176-277 limits assumed): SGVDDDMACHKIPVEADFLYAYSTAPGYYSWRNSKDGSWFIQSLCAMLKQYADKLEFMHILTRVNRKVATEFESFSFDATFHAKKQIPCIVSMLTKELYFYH

Caspase-8 = Caspase-8 (Homo sapiens, UniProt Q14790); test: biochemical; settings: read-out: Percentage inhibition (%)
Caspase-8, sequence (Q14790 217-374 limits assumed, species assumed): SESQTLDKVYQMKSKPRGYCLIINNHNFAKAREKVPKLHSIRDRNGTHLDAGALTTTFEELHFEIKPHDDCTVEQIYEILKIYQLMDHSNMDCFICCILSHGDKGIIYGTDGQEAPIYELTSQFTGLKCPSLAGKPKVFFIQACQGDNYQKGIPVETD
Caspase-8, sequence (Q14790 385-479 limits assumed, species assumed): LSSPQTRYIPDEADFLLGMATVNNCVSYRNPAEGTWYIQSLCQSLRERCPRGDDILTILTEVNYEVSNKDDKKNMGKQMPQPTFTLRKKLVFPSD

[2] = target: T2, Ubiquitin carboxy-terminal hydrolase L1 (Homo sapiens, UniProt P09936); test: biochemical; settings: read-out: Percentage inhibition (%)
T2 sequence (P09936 1-223): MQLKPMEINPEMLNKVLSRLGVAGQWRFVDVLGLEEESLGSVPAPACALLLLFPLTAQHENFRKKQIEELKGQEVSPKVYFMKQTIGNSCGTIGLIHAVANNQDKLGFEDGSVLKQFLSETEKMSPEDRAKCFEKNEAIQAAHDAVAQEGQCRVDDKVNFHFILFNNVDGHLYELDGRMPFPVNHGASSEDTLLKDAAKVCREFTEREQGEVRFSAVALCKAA

[3] = target: T3, Ubiquitin carboxy-terminal hydrolase L3 (Homo sapiens, UniProt P15374); test: biochemical; settings: read-out: Percentage inhibition (%)
T3 sequence (P15374 1-230): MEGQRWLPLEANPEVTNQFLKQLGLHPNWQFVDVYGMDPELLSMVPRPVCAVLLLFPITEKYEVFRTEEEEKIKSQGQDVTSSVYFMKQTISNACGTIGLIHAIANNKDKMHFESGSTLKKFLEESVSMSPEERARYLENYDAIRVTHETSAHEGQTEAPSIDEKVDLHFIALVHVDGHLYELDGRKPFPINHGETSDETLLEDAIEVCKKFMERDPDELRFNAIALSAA

[4] = target: Ubiquitin carboxyl-terminal hydrolase 10 (Homo sapiens, UniProt Q14694); test: biochemical; settings: read-out: Percentage inhibition (%)
Ubiquitin carboxyl-terminal hydrolase 10, sequence (Q14694 whole entry): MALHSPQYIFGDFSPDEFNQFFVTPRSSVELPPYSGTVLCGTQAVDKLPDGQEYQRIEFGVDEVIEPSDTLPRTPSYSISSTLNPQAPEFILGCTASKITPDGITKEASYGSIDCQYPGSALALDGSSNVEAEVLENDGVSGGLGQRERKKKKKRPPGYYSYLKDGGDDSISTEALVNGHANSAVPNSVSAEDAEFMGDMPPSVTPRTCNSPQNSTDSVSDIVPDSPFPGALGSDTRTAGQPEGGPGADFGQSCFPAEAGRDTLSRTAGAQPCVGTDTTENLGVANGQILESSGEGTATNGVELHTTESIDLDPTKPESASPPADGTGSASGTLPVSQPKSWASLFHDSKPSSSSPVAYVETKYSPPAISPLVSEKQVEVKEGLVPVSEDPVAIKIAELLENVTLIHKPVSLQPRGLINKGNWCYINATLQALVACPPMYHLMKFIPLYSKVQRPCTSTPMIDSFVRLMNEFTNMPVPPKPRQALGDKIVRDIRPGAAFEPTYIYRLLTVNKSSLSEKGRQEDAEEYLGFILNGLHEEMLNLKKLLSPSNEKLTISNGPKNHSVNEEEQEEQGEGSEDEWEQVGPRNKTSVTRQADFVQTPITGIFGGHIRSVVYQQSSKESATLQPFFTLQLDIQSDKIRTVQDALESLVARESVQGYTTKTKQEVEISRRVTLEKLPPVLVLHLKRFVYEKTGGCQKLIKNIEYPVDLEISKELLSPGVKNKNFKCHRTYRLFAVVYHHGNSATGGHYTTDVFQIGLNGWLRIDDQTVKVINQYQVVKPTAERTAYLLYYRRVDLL

[5] = target: serine protease NS3 (a.a. 3-181) from Hepatitis C virus genotype 2a (Hepatitis C virus genotype 2a, UniProt Q99IB8); test: biochemical; settings: read-out: Percentage inhibition (%)
serine protease NS3 (a.a. 3-181) from Hepatitis C virus genotype 2a, sequence (Q99IB8 1033-1211 limits assumed, other chains not shown): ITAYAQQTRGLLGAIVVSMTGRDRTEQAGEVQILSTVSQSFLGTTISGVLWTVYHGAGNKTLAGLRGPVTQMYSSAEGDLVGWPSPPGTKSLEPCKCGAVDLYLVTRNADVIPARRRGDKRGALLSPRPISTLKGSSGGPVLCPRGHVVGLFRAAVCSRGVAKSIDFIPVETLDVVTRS

Matrix metalloprotease 2 = target: T4, Matrix metalloprotease 2 (Homo sapiens, UniProt P08253); test: biochemical; settings: read-out: Percentage inhibition (%)
T4 sequence (P08253 110-660): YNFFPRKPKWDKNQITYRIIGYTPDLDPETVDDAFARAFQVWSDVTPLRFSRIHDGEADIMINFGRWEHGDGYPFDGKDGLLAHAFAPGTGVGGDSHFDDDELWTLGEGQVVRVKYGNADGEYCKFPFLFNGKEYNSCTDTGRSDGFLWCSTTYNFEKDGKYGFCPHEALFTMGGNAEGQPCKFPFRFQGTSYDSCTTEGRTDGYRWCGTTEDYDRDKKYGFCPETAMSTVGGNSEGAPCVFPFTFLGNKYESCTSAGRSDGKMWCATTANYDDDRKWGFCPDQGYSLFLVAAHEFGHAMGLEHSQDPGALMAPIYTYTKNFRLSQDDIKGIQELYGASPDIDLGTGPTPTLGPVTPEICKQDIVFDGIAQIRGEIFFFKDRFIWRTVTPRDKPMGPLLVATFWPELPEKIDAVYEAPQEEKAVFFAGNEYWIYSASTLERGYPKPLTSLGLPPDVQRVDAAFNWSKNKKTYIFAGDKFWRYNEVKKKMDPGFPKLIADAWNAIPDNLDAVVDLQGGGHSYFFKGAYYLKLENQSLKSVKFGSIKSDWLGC

## CCCCCC(=O)N[C@H]1CSCc2cc(cc(CN3CCN(C(=O)CN4CCN(CC(=O)O)CCN(CC(=O)O)CCN(CC(=O)O)CC4)CC3)c2)CSC[C@@H](C(=O)N[C@@H](CC(=O)O)C(N)=O)NC(=O)[C@H](Cc2ccccc2)NC(=O)[C@H](CCC(N)=O)NC(=O)[C@H]([C@@H](C)O)NC(=O)[C@@H]2CCCN2C(=O)[C@@H]2CCCN2C1=O [Compound 3BP-3407, Hex-[Cys(tMeBn(DOTA-PP))-Pro-Pro-Thr-Gln-Phe-Cys]-Asp-NH2] (Hexanoyl-CPPTQFCD-NH2; linker 1-7 via X1)
NMDA
  % Inhibition of Specific Binding: 9%
A2A (h)
  inhibition at 10 µM: -4%
Alpha 2A (h)
  inhibition at 10 µM: -9%
Beta 2 (h)
  inhibition at 10 µM: 4%
CB2 (h)
  inhibition at 10 µM: 2%
H1 (h)
  inhibition at 10 µM: 11%
M1 (h)
  inhibition at 10 µM: 6%
[1]
  inhibition at 10 µM: -8%
COX2(h)
  inhibition at 10 µM: -14%
PDE4D2 (h)
  inhibition at 10 µM: -5%
Acetylcholinesterase (h)
  inhibition at 10 µM: -6%
Activated Protein C
  inhibition at 1 µM: 5%
  inhibition at 10 µM: 8%
Caspase-3
  inhibition at 1 µM: 1%
  inhibition at 10 µM: -2%
Caspase-8
  inhibition at 1 µM: 0%
  inhibition at 10 µM: 0%
[2]
  inhibition at 1 µM: -2%
  inhibition at 10 µM: 4%
[3]
  inhibition at 1 µM: -1%
  inhibition at 10 µM: 14%
[4]
  inhibition at 1 µM: -2%
  inhibition at 10 µM: 5%
[5]
  inhibition at 1 µM: 0%
  inhibition at 10 µM: -2%
Matrix metalloprotease 2
  inhibition at 1 µM: 3%
  inhibition at 10 µM: 3%

## CCCCCC(=O)N[C@H]1CSCc2cc(CSCCNC(=O)CN3CCN(CC(=O)O)CCN(CC(=O)O)CCN(CC(=O)O)CC3)cc(c2)CSC[C@@H](C(=O)O)NC(=O)[C@H](Cc2ccccc2)NC(=O)[C@H](CCC(N)=O)NC(=O)[C@H]([C@@H](C)O)NC(=O)[C@@H]2CCCN2C(=O)[C@@H]2CCCN2C1=O [Compound 3BP-3554, Hex-[Cys(tMeBn(DOTA-AET))-Pro-Pro-Thr-Gln-Phe-Cys]-OH]
NMDA
  % Inhibition of Specific Binding: 1%
A2A (h)
  inhibition at 10 µM: -16%
Alpha 2A (h)
  inhibition at 10 µM: 2%
Beta 2 (h)
  inhibition at 10 µM: 8%
CB2 (h)
  inhibition at 10 µM: -5%
H1 (h)
  inhibition at 10 µM: 4%
M1 (h)
  inhibition at 10 µM: 8%
[1]
  inhibition at 10 µM: -5%
COX2(h)
  inhibition at 10 µM: -22%
PDE4D2 (h)
  inhibition at 10 µM: -4%
Acetylcholinesterase (h)
  inhibition at 10 µM: 1%
Activated Protein C
  inhibition at 1 µM: -11%
  inhibition at 10 µM: 1%
Caspase-3
  inhibition at 1 µM: -2%
  inhibition at 10 µM: -1%
Caspase-8
  inhibition at 1 µM: 0%
  inhibition at 10 µM: -3%
[2]
  inhibition at 1 µM: -4%
  inhibition at 10 µM: 4%
[3]
  inhibition at 1 µM: 0%
  inhibition at 10 µM: 0%
[4]
  inhibition at 1 µM: 1%
  inhibition at 10 µM: -1%
[5]
  inhibition at 1 µM: -13%
  inhibition at 10 µM: -40%
Matrix metalloprotease 2
  inhibition at 1 µM: -1%
  inhibition at 10 µM: -2%

Source: patent publication US12427210B2, “Compounds comprising a fibroblast activation protein ligand and use thereof” (priority 2019, dated 2025)
